The source of these data is patent publication US20140235643A1, “NOVEL QUINOXALINE INHIBITORS OF PI3K” (GILEAD CALISTOGA LLC, priority 2011, published 2014).

In one assay the target is T1, PI3Kα (p110α/p85α) (Homo sapiens, UniProt P42336).
T1 construct: purchased Invitrogen
Kind of assay: PI3K biochemical enzyme assay (Adapta universal kinase assay), p110 alpha/p85 alpha. The following applies: for IC50: Table 1, lower part, read-out: PI3Kα IC50. As to the method:
(§1) This example describes a method of obtaining in vitro activity data concerning the effect of compounds of on various PI3K isoforms. The effect of compounds on the kinase activity of Class I PI3Ks was measured at Invitrogen by using the Adapta® universal kinase assay. It was a homogenous, fluorescent based immunoassay for the detection of ADP produced by the kinase reaction. This assay can be divided into two phases: a kinase reaction phase, and an ADP detection phase. In the kinase reaction phase, all components required for the kinase reaction were added to the well, and the reaction was allowed to incubate for 60 minutes. After the reaction, a detection solution consisting of a europium labeled anti-ADP antibody, an Alexa Fluor® 647 labeled ADP tracer, and EDTA (to stop the kinase reaction) was added to the assay well. ADP formed by the kinase reaction (in the absence of an inhibitor) displaced the Alexa Fluor® 647 labeled ADP tracer from the antibody, resulting in a decrease in the TR-FRET signal.
(§2) ADP formation was determined by calculating the emission ratio from the assay well. The emission ratio was calculated by dividing the intensity of the tracer (acceptor) emission by the intensity of the Eu (donor) emission at 615 nm as shown in the equation below.
(§3) The Test Compounds were screened in 1% DMSO (final) in the well. All Substrate/Kinase Mixtures were diluted to a 2× working concentration in the appropriate Kinase Buffer as described below for the individual kinase:
The 2× p110 alpha/p85 alpha/PIP2:PS mixture was prepared in 50 mM HEPES pH 7.5, 100 mM NaCl, 0.03% CHAPS, 3 mM mgCl2, 1 mM EGTA. The final 10 μL Kinase Reaction consisted of 0.3-1.5 ng p110 alpha/p85 alpha and 50 μM PIP2:PS in 32.5 mM HEPES pH 7.5, 50 mM NaCl, 0.015% CHAPS, 1.5 mM mgCl2, 0.5 mM EGTA. After the 1 hour Kinase Reaction incubation, 5 μL of Detection Mix was added.
(§4) The Detection mix consisted of EDTA (30 mM), Eu-anti-ADP antibody (30 nM) and ADP tracer. All ATP Solutions were diluted to a 4× working concentration in water and used at the Km apparent concentrations for each individual kinase.

For a further assay, the target named is T2, PI3Kβ (p110β/p85α) (Homo sapiens, UniProt P42338).
T2 construct: purchased Invitrogen
Briefly: PI3K biochemical enzyme assay (Adapta universal kinase assay), p110 beta/p85 alpha. The following applies: for inhibition at 10 µM: read-out: PI3Kβ % inhib; for IC50: Table 1, lower part, read-out: PI3Kβ IC50. On the procedure:
as §1, §2, §3
The 2× p 110beta/p85 alpha/PIP2:PS mixture was prepared in 50 mM HEPES pH 7.5, 100 mM NaCl, 0.03% CHAPS, 1 mM EGTA, 3 mM mgCl2, and 2 mM DTT. The final 10 μL Kinase Reaction consisted of 35.4 ng p110 beta/p85 alpha and 50 μM PIP2:PS. After the 1 hour Kinase Reaction incubation, 5 μL of Detection Mix was added.
as §4

A further assay has as its target T3, PI3Kδ (p110δ/p85α) (Homo sapiens, UniProt O00329).
T3 construct: purchased Invitrogen
Briefly: PI3K biochemical enzyme assay (Adapta universal kinase assay), p110 delta/p85 alpha. The conditions noted are these: for IC50: Table 1, lower part, read-out: PI3Kδ IC50. As to the method: as §1, §2, §3
The 2× p110 delta/p85 alpha/PIP2:PS mixture was prepared in 50 mM HEPES pH 7.5, 100 mM NaCl, 0.03% CHAPS, 3 mM mgCl2, 1 mM EGTA. The final 10 μL Kinase Reaction consisted of 0.35-2.6 ng p110 delta/p85 alpha and 50 μM PIP2:PS in 32.5 mM HEPES pH 7.5, 50 mM NaCl, 0.015% CHAPS, 1.5 mM mgCl2, 0.5 mM EGTA. After the 1 hour Kinase Reaction incubation, […] of Detection Mix was added.
as §4

The next assay addresses T4, PI3Kγ (p110 gamma) (Homo sapiens, UniProt P48736).
T4 construct: purchased Invitrogen
Briefly: PI3K biochemical enzyme assay (Adapta universal kinase assay), p110 gamma. The conditions noted are these: for inhibition at 1 µM / inhibition at 10 µM: read-out: PI3Kγ % inhib; for IC50: Table 1, lower part, read-out: PI3Kγ IC50; for increase in gamma potency compared to analog without amino substituent on the purine ring: Q17 vs Q16, Q15 vs Q14. On the procedure:
as §1, §2, §3
The 2× p110 gamma/PIP2:PS mixture was prepared in 50 mM HEPES pH 7.5, 1 mM EGTA, 3 mM mgCl2. The final […] Kinase Reaction consisted of 3.5-26 ng p110 gamma and 50 μM PIP2:PS in 32.5 mM HEPES pH 7.5, 0.5 mM EGTA, 1.5 mM mgCl2. After the 1 hour Kinase Reaction incubation, 5 μL of Detection Mix was added.
as §4

The target of another assay is T5, PI3Kα (Mus musculus, UniProt P42337).
T5 construct: endogenous in cells; host or cells: Swiss-3T3 fibroblasts (ATCC)
Briefly: PI3Kα-dependent cell-based assay: PDGF-BB mediated AKT phosphorylation in Swiss-3T3 cells. The following applies: PDGF-BB-induced AKT phosphorylation, Swiss-3T3 fibroblasts. As to the method: (§5) PDGF-BB-induced AKT phosphorylation in Swiss-3T3 fibroblasts is mediated by p110α. C5a-induced AKT phosphorylation in RAW-264 murine macrophages is mediated exclusively by p110γ.
PI3Kα-Dependent Cell-Based Assay: PDGF-BB Mediated AKT Phosphorylation in Swiss-3T3 Cells
Swiss-3T3 fibroblasts (American Type Culture Collection) were cultured with DMEM containing 10% fetal bovine serum and the antibiotics penicillin and streptomycin. Cells were seeded on a 96-well Tissue Culture Plate at 25,000 cells/well and allowed to reach at least 90% confluency. The cells were starved for 2 to 12 hr in 0.1% FBS containing medium and then were pretreated with inhibitors or DMSO for 2 hr. The cells were stimulated for 15 min with 10 ng/ml PDGF-BB (Cell Signaling Technology) at 37° C. in 5% CO2. The culture medium was removed and cells were fixed for 20 min at room temperature by addition of 100 μl of 4% cell fixing buffer to each well. AKT phosphorylation and total AKT was detected by ELISA.
(§6) Detection of Phospho-Ser-473 AKT and Total AKT by ELISA
(§7) The fixed cells were washed twice with 150 μl of wash buffer (WB) and quenched by incubating with 100 μl of Quenching Buffer for 20 min at room temperature. Cells were washed once with 150 μl WB and blocked by incubating with 100 μl of Blocking Buffer for 1 hr at room temperature. Cells were incubated with 50 μl of primary antibody diluted in Blocking Buffer, either phospho-Ser-473 AKT specific (1:150 dilution) or total-AKT antibody (1:200 dilution), to each specific well. The negative control wells contained 50 μl of Blocking Buffer. Plates were sealed with plate sealing film and incubated overnight at 4° C. Cells were washed twice with 150 μl WB followed by addition of 50 μl per well of DELFIA secondary antibody (50 ng/well, diluted in DELFIA Assay Buffer). After 2 hr incubation at room temperature, cells were washed 4 times with 150 μl of Europium Wash Solution followed by addition of 100 μl of DELFIA Enhancing Solution to each well. Plates were incubated for 5 min in the dark and fluorescent signal was read using SpectraMax M5™ (Molecular Devices). Total AKT level was determined to verify equal cell number per well. The average background fluorescence values from wells that received vehicle control in the absence of PDGF-BB or C5a were subtracted from all the values of experimental conditions. Fluorescence values corresponding to phosphorylated AKT from wells that received PDGF-BB or C5a were normalized to 100% and compound effect was plotted as % change relative to the vehicle control.

The target of another assay is T6, PI3Kγ (Mus musculus, UniProt Q9JHG7).
T6 construct: endogenous in cells; host or cells: RAW-264 macrophage cells (ATCC)
Kind of assay: PI3Kγ-dependent cell-based assay: C5a-mediated AKT phosphorylation in RAW-264 cells. Set-up: species or system murine. The conditions noted are these: C5a-induced AKT phosphorylation, RAW-264 macrophages. On the procedure:
as §5
PI3Kγ-Dependent Cell-Based Assay: C5a-Mediated AKT Phosphorylation in RAW-264 Cells
RAW-264 macrophage cells (American Type Culture Collection) were cultured with Dulbecco's modified Eagle medium (DMEM) containing 10% fetal bovine serum and the antibiotics penicillin and streptomycin. Cells were seeded on a 96-well Tissue Culture Plate at 100,000 to 200,000 cells/well the day before the experiment. Next day, cells were starved for 2 hr in 0.1% FBS containing medium. The cells were pretreated with inhibitors or DMSO for 2 hr and stimulated for 5 min with 75 ng/ml C5a (R&D) at 37° C. in 5% CO2. The culture medium was removed and cells were fixed for 20 min at room temperature by addition of 100 μl of 4% cell fixing buffer to each well. AKT phosphorylation and total AKT was detected by ELISA.
as §6, §7

T3 sequence (O00329 whole entry): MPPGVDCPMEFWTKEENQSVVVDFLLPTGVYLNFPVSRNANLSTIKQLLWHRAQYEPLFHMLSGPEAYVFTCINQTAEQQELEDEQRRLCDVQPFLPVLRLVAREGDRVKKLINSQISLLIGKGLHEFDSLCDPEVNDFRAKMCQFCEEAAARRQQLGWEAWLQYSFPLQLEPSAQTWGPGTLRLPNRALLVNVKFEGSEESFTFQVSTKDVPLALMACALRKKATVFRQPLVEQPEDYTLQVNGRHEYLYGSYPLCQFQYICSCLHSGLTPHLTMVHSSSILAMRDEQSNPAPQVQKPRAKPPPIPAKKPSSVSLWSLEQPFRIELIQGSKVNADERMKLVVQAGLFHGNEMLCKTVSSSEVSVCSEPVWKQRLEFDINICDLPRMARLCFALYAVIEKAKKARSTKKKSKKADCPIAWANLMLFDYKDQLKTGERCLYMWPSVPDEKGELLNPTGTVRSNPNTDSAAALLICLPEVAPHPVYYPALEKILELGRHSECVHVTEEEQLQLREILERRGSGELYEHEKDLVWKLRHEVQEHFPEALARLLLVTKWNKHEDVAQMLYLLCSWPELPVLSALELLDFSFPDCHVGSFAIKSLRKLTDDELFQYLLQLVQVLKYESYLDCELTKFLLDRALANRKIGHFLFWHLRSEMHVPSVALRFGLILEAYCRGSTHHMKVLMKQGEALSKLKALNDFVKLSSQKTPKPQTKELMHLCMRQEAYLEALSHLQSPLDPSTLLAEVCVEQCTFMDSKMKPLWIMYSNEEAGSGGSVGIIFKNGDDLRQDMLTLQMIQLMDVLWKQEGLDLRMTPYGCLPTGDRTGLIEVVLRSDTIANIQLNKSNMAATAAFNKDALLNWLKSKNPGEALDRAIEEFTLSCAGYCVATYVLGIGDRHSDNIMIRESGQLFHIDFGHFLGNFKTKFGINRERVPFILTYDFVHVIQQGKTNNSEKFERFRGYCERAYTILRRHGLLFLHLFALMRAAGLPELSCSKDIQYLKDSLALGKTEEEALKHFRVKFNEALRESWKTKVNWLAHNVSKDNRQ
T3 sequence (P27986 whole entry partner): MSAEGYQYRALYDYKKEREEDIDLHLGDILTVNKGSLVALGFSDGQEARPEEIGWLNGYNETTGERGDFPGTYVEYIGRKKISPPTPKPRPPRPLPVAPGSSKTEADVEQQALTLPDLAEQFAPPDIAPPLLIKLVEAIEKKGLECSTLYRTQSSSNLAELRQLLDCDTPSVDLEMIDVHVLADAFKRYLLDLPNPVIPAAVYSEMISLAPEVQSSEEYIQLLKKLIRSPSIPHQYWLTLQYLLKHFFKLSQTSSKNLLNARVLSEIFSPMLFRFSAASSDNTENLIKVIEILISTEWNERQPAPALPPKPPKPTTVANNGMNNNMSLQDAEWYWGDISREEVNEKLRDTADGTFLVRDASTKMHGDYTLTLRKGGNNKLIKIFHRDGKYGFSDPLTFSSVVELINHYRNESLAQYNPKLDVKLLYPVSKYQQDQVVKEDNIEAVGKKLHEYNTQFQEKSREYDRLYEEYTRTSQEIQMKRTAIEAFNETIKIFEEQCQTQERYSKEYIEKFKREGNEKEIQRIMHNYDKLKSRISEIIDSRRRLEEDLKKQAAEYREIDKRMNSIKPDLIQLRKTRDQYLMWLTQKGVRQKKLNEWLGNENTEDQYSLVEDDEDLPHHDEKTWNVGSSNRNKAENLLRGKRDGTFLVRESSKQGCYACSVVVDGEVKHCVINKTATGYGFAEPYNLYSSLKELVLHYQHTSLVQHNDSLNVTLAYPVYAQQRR
T4 sequence (P48736 whole entry): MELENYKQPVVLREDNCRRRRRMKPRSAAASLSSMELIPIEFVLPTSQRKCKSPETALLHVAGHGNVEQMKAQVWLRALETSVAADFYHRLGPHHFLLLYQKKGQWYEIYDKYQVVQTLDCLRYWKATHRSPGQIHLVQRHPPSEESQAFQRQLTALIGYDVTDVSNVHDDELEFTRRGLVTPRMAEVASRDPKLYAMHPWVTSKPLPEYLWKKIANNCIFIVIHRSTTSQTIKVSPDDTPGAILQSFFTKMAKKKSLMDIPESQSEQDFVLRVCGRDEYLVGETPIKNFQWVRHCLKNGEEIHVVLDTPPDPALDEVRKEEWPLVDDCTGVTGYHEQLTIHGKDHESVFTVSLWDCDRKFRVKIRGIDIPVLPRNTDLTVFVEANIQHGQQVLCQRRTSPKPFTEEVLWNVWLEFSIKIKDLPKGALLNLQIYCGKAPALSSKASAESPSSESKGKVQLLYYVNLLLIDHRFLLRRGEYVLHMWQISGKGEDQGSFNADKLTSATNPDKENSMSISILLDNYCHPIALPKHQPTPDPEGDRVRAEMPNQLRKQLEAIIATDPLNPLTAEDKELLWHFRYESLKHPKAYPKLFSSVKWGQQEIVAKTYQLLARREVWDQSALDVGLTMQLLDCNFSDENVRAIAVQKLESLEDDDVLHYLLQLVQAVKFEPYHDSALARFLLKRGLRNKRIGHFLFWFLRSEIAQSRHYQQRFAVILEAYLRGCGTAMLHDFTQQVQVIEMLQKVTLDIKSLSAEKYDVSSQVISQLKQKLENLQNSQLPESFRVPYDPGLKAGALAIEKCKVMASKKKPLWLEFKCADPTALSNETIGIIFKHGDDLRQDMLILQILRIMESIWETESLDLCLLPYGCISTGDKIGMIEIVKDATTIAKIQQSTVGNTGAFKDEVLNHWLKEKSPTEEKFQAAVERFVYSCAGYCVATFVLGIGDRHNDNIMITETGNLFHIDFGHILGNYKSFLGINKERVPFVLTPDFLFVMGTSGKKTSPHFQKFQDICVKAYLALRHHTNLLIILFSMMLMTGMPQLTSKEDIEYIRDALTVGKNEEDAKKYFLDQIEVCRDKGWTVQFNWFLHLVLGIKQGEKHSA
T6 sequence (Q9JHG7 whole entry): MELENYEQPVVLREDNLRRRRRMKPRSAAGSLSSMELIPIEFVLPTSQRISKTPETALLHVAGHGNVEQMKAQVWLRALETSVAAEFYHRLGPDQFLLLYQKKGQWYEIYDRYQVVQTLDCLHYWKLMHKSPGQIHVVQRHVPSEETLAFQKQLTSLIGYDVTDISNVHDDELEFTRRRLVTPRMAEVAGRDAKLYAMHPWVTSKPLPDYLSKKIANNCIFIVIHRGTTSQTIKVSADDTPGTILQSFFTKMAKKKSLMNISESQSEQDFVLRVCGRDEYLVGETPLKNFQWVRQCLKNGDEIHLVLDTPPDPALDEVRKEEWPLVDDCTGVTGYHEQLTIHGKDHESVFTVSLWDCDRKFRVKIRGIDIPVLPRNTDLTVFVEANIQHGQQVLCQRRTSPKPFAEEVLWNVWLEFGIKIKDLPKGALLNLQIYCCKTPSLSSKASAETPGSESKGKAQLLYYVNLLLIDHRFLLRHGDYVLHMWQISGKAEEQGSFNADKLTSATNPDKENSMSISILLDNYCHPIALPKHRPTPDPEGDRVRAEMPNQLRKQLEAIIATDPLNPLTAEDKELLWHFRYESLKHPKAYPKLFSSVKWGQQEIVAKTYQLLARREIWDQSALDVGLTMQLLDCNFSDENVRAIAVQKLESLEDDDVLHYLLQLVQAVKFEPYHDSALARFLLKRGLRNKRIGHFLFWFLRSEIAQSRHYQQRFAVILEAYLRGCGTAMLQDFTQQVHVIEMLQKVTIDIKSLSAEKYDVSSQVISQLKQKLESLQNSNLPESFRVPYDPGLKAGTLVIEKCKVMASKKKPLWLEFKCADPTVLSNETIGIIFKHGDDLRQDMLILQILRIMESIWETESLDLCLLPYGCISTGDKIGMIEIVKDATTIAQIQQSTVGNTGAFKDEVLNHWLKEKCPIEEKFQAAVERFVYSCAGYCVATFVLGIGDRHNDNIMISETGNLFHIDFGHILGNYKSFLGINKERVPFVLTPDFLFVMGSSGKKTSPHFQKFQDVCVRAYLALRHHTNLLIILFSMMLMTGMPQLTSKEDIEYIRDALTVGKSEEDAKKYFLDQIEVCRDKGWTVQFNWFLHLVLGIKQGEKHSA
T1 sequence (P42336 whole entry): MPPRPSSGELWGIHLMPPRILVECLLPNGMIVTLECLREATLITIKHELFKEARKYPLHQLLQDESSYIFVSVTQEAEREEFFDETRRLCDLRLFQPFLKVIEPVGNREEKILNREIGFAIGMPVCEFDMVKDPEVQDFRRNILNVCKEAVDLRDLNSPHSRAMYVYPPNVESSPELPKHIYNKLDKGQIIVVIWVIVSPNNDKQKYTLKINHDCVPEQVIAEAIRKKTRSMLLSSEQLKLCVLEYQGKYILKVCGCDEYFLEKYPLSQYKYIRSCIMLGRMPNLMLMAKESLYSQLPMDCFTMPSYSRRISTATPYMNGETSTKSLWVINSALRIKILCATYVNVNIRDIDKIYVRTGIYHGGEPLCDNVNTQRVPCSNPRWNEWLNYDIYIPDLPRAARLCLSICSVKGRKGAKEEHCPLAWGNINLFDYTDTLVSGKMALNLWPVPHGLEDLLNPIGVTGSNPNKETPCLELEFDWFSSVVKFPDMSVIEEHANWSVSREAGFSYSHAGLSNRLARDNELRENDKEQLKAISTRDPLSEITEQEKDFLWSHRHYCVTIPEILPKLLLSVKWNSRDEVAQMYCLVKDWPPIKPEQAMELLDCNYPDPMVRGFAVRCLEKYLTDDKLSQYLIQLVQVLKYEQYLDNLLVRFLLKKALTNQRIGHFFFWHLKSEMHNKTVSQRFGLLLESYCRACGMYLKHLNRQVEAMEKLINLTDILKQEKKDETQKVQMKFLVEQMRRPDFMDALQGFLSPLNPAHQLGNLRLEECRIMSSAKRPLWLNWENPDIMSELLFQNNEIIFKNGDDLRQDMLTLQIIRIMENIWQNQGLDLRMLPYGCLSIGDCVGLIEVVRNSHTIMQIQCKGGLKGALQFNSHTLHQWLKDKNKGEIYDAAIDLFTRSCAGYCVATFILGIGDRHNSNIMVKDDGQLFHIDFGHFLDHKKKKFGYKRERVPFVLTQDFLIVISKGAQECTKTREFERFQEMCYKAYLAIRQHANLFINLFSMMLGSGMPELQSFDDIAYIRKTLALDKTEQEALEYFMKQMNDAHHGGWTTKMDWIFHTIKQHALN
T1 sequence (P27986 whole entry partner): as the sequence (P27986 whole entry partner) above

As for `Cc1cccc2nc(C(C)n3cnc4c(N)ncnc43)c(-c3ccccc3)nc12` (stereo not drawn) [Compound Q6, 9-[1-(5-methyl-3-phenylquinoxalin-2-yl)ethyl]-9H-purin-6-amine], the inhibition at 10 µM is 32% on PI3Kα (p110α/p85α) (read-out: PI3Kα % inhib), 61% at PI3Kβ (p110β/p85α), 100% at PI3Kδ (p110δ/p85α) (read-out: PI3Kδ % inhib) and 89% on PI3Kγ (p110 gamma). For the same molecule, the inhibition at 0.1 µM on PI3Kδ (p110δ/p85α) (0.1 μM, read-out: PI3Kδ % inhib) came to 63%. Besides, the inhibition at 1 µM on PI3Kδ (p110δ/p85α) (read-out: PI3Kδ % inhib) is 86%; on PI3Kγ (p110 gamma) it was 48%. Besides, the EC50 on PI3Kα and at PI3Kγ was over 20 µM in each case.

As for `Cc1cccc2nc(C(C)Nc3ncnc4[nH]cnc34)c(-c3ccc(F)cc3)nc12` (stereo not drawn) [Compound Q7], the inhibition at 1 µM amounted to 28% at PI3Kα (p110α/p85α) (1 μM, read-out: PI3Kα % inhib); 71% on PI3Kδ (p110δ/p85α) (read-out: PI3Kδ % inhib); 61% on PI3Kγ (p110 gamma). For the same molecule, the inhibition at 10 µM turned out to be 88% at PI3Kα (p110α/p85α) (read-out: PI3Kα % inhib), 77% on PI3Kβ (p110β/p85α), 100% at PI3Kδ (p110δ/p85α) (read-out: PI3Kδ % inhib) and 95% at PI3Kγ (p110 gamma). For the same molecule, the EC50 at PI3Kα stood at 15.2 µM; on PI3Kγ, 3.59 µM.

Take `CCC(Nc1ncnc2[nH]cnc12)c1nc2cccc(C)c2nc1-c1ccccc1` (stereo not drawn) [Compound Q8]: the inhibition at 10 µM on PI3Kα (p110α/p85α) (read-out: PI3Kα % inhib) is 50%; at PI3Kβ (p110β/p85α), 53%; on PI3Kδ (p110δ/p85α) (read-out: PI3Kδ % inhib) it was 100%; at PI3Kγ (p110 gamma) it was 83%. Besides, the inhibition at 1 µM at PI3Kδ (p110δ/p85α) (read-out: PI3Kδ % inhib) is 58%; at PI3Kγ (p110 gamma), 30%. Also, the EC50 at PI3Kα and on PI3Kγ was over 20 µM each time.

As for `CC(Nc1ncnc2[nH]cnc12)c1nc2ccccc2nc1-c1c(F)cccc1F` (stereo not drawn) [Compound Q10], the inhibition at 10 µM on PI3Kα (p110α/p85α) (read-out: PI3Kα % inhib) was 30%; on PI3Kβ (p110β/p85α), 30%; at PI3Kδ (p110δ/p85α) (read-out: PI3Kδ % inhib) it was 99%; on PI3Kγ (p110 gamma) it was 82%. In addition, the inhibition at 1 µM at PI3Kδ (p110δ/p85α) (read-out: PI3Kδ % inhib) turned out to be 74%; at PI3Kγ (p110 gamma), 12%. The EC50 at PI3Kα and at PI3Kγ was over 20 µM throughout.

On to `Cc1ccc(-c2nc3ccccc3nc2C(C)Nc2ncnc3[nH]cnc23)cc1` (stereo not drawn) [Compound Q11], for which the inhibition at 10 µM amounted to 53% at PI3Kα (p110α/p85α) (read-out: PI3Kα % inhib), 76% at PI3Kβ (p110β/p85α), 99% at PI3Kδ (p110δ/p85α) (read-out: PI3Kδ % inhib) and 79% at PI3Kγ (p110 gamma). Moreover, the inhibition at 1 µM at PI3Kδ (p110δ/p85α) (read-out: PI3Kδ % inhib) worked out at 45%. The concentration giving a half-maximal response (EC50) on PI3Kα and at PI3Kγ was over 20 µM in each case.

`Nc1ncnc2c1ncn2Cc1nc2ccccc2nc1-c1ccccc1` [Compound Q13]: the IC50 on PI3Kδ (p110δ/p85α) was determined as 1.17 µM; on PI3Kγ (p110 gamma), 46.5 µM.

Take `c1ccc(-c2nc3ccccc3nc2CSc2ncnc3[nH]cnc23)cc1` [Compound Q14]: the IC50 at PI3Kδ (p110δ/p85α) amounted to 0.95 µM; on PI3Kγ (p110 gamma), 17.5 µM.

`Nc1nc(SCc2nc3ccccc3nc2-c2ccccc2)c2nc[nH]c2n1` [Compound Q15]: the IC50 worked out at 0.25 µM on PI3Kδ (p110δ/p85α) and 2.38 µM on PI3Kγ (p110 gamma). Moreover, the “increase in gamma potency compared to analog without amino substituent on the purine ring” value on PI3Kγ (p110 gamma) was found to be 8 ×.

`c1ccc(-c2nc3ccccc3nc2CNc2ncnc3[nH]cnc23)cc1` [Compound Q16]: the IC50 at PI3Kα (p110α/p85α) worked out at 51 µM; at PI3Kβ (p110β/p85α), 14.5 µM; at PI3Kδ (p110δ/p85α), 0.19 µM; at PI3Kγ (p110 gamma), 20.5 µM.

Take `Nc1nc(NCc2nc3ccccc3nc2-c2ccccc2)c2nc[nH]c2n1` [Compound Q17]: the IC50 is 100 µM on PI3Kα (p110α/p85α), 8.5 µM on PI3Kβ (p110β/p85α), 0.075 µM at PI3Kδ (p110δ/p85α) and 0.692 µM at PI3Kγ (p110 gamma). In addition, at PI3Kγ (p110 gamma), the “increase in gamma potency compared to analog without amino substituent on the purine ring” value was 30 ×.

The term EC50 denotes the concentration giving half of the maximal effect. What is called IC50 is the midpoint of a concentration-inhibition curve.
